Source: patent publication US11492385B2, “Long-acting co-agonists of the glucagon and GLP-1 receptors” (Merck Sharp & Dohme Corp., priority 2015, dated 2022)
Starred links: 1 amine or outer side, 2 acyl side, 3 side chain; linkers in the order of their positions; H or OH if unused. Non-standard residues stand in square brackets, D forms with d. Residues, ends and D or L forms follow the SMILES beside them. Groups on a side chain read outwards from the residue. *: point of attachment. Phe(4-CH2NH2) = NCc1ccc(C[C@H](N)C(=O)O)cc1; C18 diacid = O=C(O)CCCCCCCCCCCCCCCCC(=O)*; C16 diacid = O=C(O)CCCCCCCCCCCCCCC(=O)*; γGlu = O=C(O)[C@H](CCC(=O)[*:2])N[*:1]; X1 = O=C([C@H]1CCC[C@@H]1N[*:1])[*:2]; Met(O2) = CS(=O)(=O)CC[C@H](N)C(=O)O; αMeL = CC(C)C[C@](C)(N)C(=O)O; AEEA = NCCOCCOCC(=O)O; Aib = CC(C)(N)C(=O)O

What was measured:
human GLP1R = molecular target: T1, human GLP1R (Homo sapiens, UniProt P43220); experiment: cAMP activity assay, cells expressing human GLP1R; type: cell-based; conditions: cAMP production, assay buffer with or without 20% human serum (not stated which)
T1 construct: expressed in transfected cells; kept under Blasticidin and Hygromycin selection
T1 sequence (P43220 24-463): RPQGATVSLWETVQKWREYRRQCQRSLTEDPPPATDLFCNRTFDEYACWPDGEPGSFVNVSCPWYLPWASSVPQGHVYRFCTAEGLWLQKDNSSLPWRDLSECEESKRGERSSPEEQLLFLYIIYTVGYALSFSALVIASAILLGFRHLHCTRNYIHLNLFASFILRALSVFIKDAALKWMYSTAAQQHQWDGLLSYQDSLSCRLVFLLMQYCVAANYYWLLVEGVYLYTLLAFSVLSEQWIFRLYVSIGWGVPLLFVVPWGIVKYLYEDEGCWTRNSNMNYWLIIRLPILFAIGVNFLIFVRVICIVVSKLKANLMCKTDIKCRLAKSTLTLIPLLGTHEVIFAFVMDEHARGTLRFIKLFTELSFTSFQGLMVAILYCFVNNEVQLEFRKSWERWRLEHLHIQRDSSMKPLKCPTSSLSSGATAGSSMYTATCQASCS
Method: (§1) Activity of the peptides at the Glucagon receptor (GCGR) and GLP-1 receptor (GLP1R) was measured in a cAMP activity assay. Peptides were dissolved in 100% DMSO and serially diluted to generate 10 point titrations. The peptide solutions were then transferred into 384-well assay plates (150 nL/well). […] Production of cAMP was determined using […] kits (DiscoverX) following manufacturer protocol. The plates were incubated for overnight at room temperature in the dark. Luminescence was measured using an EnVision Multilabel plate reader (Perkin Elmer). Native GLP-1 and Glucagon (Bachem) are used as control peptides. EC50 values were calculated using uses a 4 parameter logistic fit based on the Levenberg-Marquardt algorithm.

human GCGR = molecular target: T2, human GCGR (Homo sapiens, UniProt P47871); experiment: cAMP activity assay, cells expressing human GCGR; type: cell-based; conditions: for EC50: cAMP production, cells expressing human GCGR, assay buffer with or without 20% human serum (not stated which), read-out: GCGR EC50 human; for hGCGR/hGLP1R (hTone): ratio of human GCGR EC50 to human GLP1R EC50
T2 construct: expressed in transfected cells; kept under Blasticidin and Hygromycin selection
T2 sequence (P47871 26-477): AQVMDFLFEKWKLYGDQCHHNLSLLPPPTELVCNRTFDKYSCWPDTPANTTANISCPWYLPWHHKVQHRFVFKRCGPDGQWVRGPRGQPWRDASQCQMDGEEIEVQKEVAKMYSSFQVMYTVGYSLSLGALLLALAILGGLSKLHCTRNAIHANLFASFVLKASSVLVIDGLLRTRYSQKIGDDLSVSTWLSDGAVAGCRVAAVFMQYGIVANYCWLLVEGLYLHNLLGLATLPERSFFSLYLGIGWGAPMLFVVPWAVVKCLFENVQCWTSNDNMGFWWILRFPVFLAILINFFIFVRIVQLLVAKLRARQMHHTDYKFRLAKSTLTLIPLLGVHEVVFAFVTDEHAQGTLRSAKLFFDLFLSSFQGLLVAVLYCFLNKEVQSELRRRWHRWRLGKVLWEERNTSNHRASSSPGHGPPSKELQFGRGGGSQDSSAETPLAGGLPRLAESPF
Method: as §1

Compound	EC50 (human GLP1R) [nM]	EC50 (human GCGR) [nM]	hGCGR/hGLP1R (hTone) (human GCGR)
CC(C)C[C@H](NC(=O)[C@H](Cc1c[nH]c2ccccc12)NC(=O)[C@H](CCC(N)=O)NC(=O)[C@@H](NC(=O)[C@H](Cc1ccccc1)NC(=O)[C@H](CC(=O)O)NC(=O)[C@H](CCC(N)=O)NC(=O)[C@H](C)NC(=O)[C@H](C)NC(=O)[C@H](CCCNC(=N)N)NC(=O)C(C)(C)NC(=O)[C@H](CC(=O)O)NC(=O)[C@H](CC(C)C)NC(=O)[C@H](Cc1ccc(O)cc1)NC(=O)[C@H](CCCCNC(=O)COCCOCCNC(=O)COCCOCCNC(=O)CC[C@H](NC(=O)CCCCCCCCCCCCCCCCC(=O)O)C(=O)O)NC(=O)[C@H](CO)NC(=O)[C@H](Cc1ccc(O)cc1)NC(=O)[C@H](CC(=O)O)NC(=O)[C@H](CO)NC(=O)[C@@H](NC(=O)[C@H](Cc1ccccc1)NC(=O)[C@@H](NC(=O)CNC(=O)[C@H](CCC(N)=O)NC(=O)C(C)(C)NC(=O)[C@@H](N)Cc1c[nH]cn1)[C@@H](C)O)[C@@H](C)O)C(C)C)C(=O)N[C@@H](CCS(C)(=O)=O)C(=O)N[C@@H](CC(=O)O)C(=O)N[C@H](C(N)=O)[C@@H](C)O [compound 5] (H-H[Aib]QGTFTSDYSK([AEEA-AEEA-γGlu-C18 diacid])YLD[Aib]RAAQDFVQWL[Met(O2)]DT-NH2)	0.11	0.97	8.80
CC(C)C[C@H](NC(=O)[C@H](Cc1ccc(O)cc1)NC(=O)[C@H](CCCCN)NC(=O)[C@H](CO)NC(=O)[C@H](Cc1ccc(CNC(=O)COCCOCCNC(=O)COCCOCCNC(=O)CC[C@H](NC(=O)CCCCCCCCCCCCCCC(=O)O)C(=O)O)cc1)NC(=O)[C@H](CC(=O)O)NC(=O)[C@H](CO)NC(=O)[C@@H](NC(=O)[C@H](Cc1ccccc1)NC(=O)[C@@H](NC(=O)CNC(=O)[C@H](CCC(N)=O)NC(=O)C(C)(C)NC(=O)[C@@H](N)Cc1c[nH]cn1)[C@@H](C)O)[C@@H](C)O)C(=O)N[C@@H](CC(=O)O)C(=O)N[C@@H](CCC(=O)O)C(=O)N[C@@H](CCCNC(=N)N)C(=O)N[C@@H](C)C(=O)N[C@@H](C)C(=O)N[C@@H](CCC(N)=O)C(=O)N[C@@H](CC(=O)O)C(=O)N[C@@H](Cc1ccccc1)C(=O)N[C@H](C(=O)N[C@@H](CCC(N)=O)C(=O)N[C@@H](Cc1c[nH]c2ccccc12)C(=O)N[C@@H](CC(C)C)C(=O)N[C@@H](CC(C)C)C(=O)N[C@@H](CCCCN)C(=O)N[C@H](C(N)=O)[C@@H](C)O)C(C)C [compound 8] (H-H[Aib]QGTFTSD[Phe(4-CH2NH2)]([AEEA-AEEA-γGlu-C16 diacid])SKYLDERAAQDFVQWLLKT-NH2)	0.03	0.42	15.26
CC(C)C[C@H](NC(=O)[C@H](Cc1ccc(O)cc1)NC(=O)[C@H](CCCCN)NC(=O)[C@H](CO)NC(=O)[C@H](Cc1ccc(O)cc1)NC(=O)[C@H](CC(=O)O)NC(=O)[C@H](CO)NC(=O)[C@@H](NC(=O)[C@H](Cc1ccccc1)NC(=O)[C@@H](NC(=O)CNC(=O)[C@H](CCC(N)=O)NC(=O)[C@@H](CO)NC(=O)[C@@H](N)Cc1c[nH]cn1)[C@@H](C)O)[C@@H](C)O)C(=O)N[C@@H](CC(=O)O)C(=O)N[C@@H](CCC(=O)O)C(=O)N[C@@H](CCCNC(=N)N)C(=O)N[C@@H](C)C(=O)N[C@@H](C)C(=O)N[C@@H](CCC(N)=O)C(=O)N[C@@H](CCCCNC(=O)COCCOCCNC(=O)COCCOCCNC(=O)CC[C@H](NC(=O)CCCCCCCCCCCCCCC(=O)O)C(=O)O)C(=O)N[C@@H](Cc1ccccc1)C(=O)N[C@H](C(=O)N[C@@H](CCC(N)=O)C(=O)N[C@@H](Cc1c[nH]c2ccccc12)C(=O)N[C@@H](CC(C)C)C(=O)N[C@@H](CCS(C)(=O)=O)C(=O)N[C@@H](CC(=O)O)C(=O)N[C@H](C(N)=O)[C@@H](C)O)C(C)C [compound 16] (H-H[dS]QGTFTSDYSKYLDERAAQK([AEEA-AEEA-γGlu-C16 diacid])FVQWL[Met(O2)]DT-NH2)	0.31	0.03	0.09

More lines, now with the values ahead:

EC50 (human GLP1R) [nM]	EC50 (human GCGR) [nM]	hGCGR/hGLP1R (hTone) (human GCGR)	Compound
0.06	0.65	10.39	CC(C)C[C@H](NC(=O)[C@H](Cc1ccc(O)cc1)NC(=O)[C@H](CCCCN)NC(=O)[C@H](CO)NC(=O)[C@H](Cc1ccc(O)cc1)NC(=O)[C@H](CC(=O)O)NC(=O)[C@H](CO)NC(=O)[C@@H](NC(=O)[C@H](Cc1ccccc1)NC(=O)[C@@H](NC(=O)CNC(=O)[C@H](CCC(N)=O)NC(=O)C(C)(C)NC(=O)[C@@H](N)Cc1c[nH]cn1)[C@@H](C)O)[C@@H](C)O)C(=O)N[C@@H](CC(=O)O)C(=O)N[C@@H](C)C(=O)N[C@@H](CCCNC(=N)N)C(=O)N[C@@H](C)C(=O)N[C@@H](C)C(=O)N[C@@H](CCCCNC(=O)COCCOCCNC(=O)COCCOCCNC(=O)CC[C@H](NC(=O)CCCCCCCCCCCCCCC(=O)O)C(=O)O)C(=O)N[C@@H](CC(=O)O)C(=O)N[C@@H](Cc1ccccc1)C(=O)N[C@H](C(=O)N[C@@H](CCC(N)=O)C(=O)N[C@@H](Cc1c[nH]c2ccccc12)C(=O)N[C@@](C)(CC(C)C)C(=O)N[C@@H](CCS(C)(=O)=O)C(=O)N[C@@H](CC(=O)O)C(=O)N[C@H](C(N)=O)[C@@H](C)O)C(C)C [compound 40] (H-H[Aib]QGTFTSDYSKYLDARAAK([AEEA-AEEA-γGlu-C16 diacid])DFVQW[αMeL][Met(O2)]DT-NH2)
0.47	1.09	2.3	CC(C)C[C@H](NC(=O)[C@H](Cc1ccc(O)cc1)NC(=O)[C@H](CCCCN)NC(=O)[C@H](CO)NC(=O)[C@H](Cc1ccc(O)cc1)NC(=O)[C@H](CC(=O)O)NC(=O)[C@H](CO)NC(=O)[C@@H](NC(=O)[C@H](Cc1ccccc1)NC(=O)[C@@H](NC(=O)CNC(=O)[C@H](CCC(N)=O)NC(=O)C(C)(C)NC(=O)[C@@H](N)Cc1c[nH]cn1)[C@@H](C)O)[C@@H](C)O)C(=O)N[C@@H](CC(=O)O)C(=O)N[C@@H](C)C(=O)N[C@@H](CCCNC(=N)N)C(=O)N[C@@H](C)C(=O)N[C@@H](C)C(=O)N[C@@H](CCC(N)=O)C(=O)N[C@@H](CC(=O)O)C(=O)N[C@@H](Cc1ccccc1)C(=O)N[C@H](C(=O)N[C@@H](CCC(N)=O)C(=O)N[C@@H](Cc1c[nH]c2ccccc12)C(=O)N[C@@H](CC(C)C)C(=O)N[C@@H](CCS(C)(=O)=O)C(=O)N[C@@H](Cc1ccc(CNC(=O)COCCOCCNC(=O)COCCOCCNC(=O)CC[C@H](NC(=O)CCCCCCCCCCCCCCCCC(=O)O)C(=O)O)cc1)C(=O)N[C@H](C(N)=O)[C@@H](C)O)C(C)C [compound 77] (H-H[Aib]QGTFTSDYSKYLDARAAQDFVQWL[Met(O2)][Phe(4-CH2NH2)]([AEEA-AEEA-γGlu-C18 diacid])T-NH2; N-terminus assumed)
0.36	0.23	0.65	CC(C)C[C@H](NC(=O)[C@H](Cc1ccc(O)cc1)NC(=O)[C@H]1CCC[C@@H]1NC(=O)[C@H](CO)NC(=O)[C@H](Cc1ccc(O)cc1)NC(=O)[C@H](CC(=O)O)NC(=O)[C@H](CO)NC(=O)[C@@H](NC(=O)[C@H](Cc1ccccc1)NC(=O)[C@@H](NC(=O)CNC(=O)[C@H](CCC(N)=O)NC(=O)C(C)(C)NC(=O)[C@@H](N)Cc1c[nH]cn1)[C@@H](C)O)[C@@H](C)O)C(=O)N[C@@H](CC(=O)O)C(=O)NC(C)(C)C(=O)N[C@@H](CCCNC(=N)N)C(=O)N[C@@H](C)C(=O)N[C@@H](C)C(=O)N[C@@H](CCCCNC(=O)COCCOCCNC(=O)COCCOCCNC(=O)CC[C@H](NC(=O)CCCCCCCCCCCCCCC(=O)O)C(=O)O)C(=O)N[C@@H](CC(=O)O)C(=O)N[C@@H](Cc1ccccc1)C(=O)N[C@H](C(=O)N[C@H]1CCC[C@@H]1C(=O)N[C@@H](Cc1c[nH]c2ccccc12)C(=O)N[C@@H](CC(C)C)C(=O)N[C@@H](CCS(C)(=O)=O)C(=O)N[C@@H](CC(=O)O)C(=O)N[C@H](C(N)=O)[C@@H](C)O)C(C)C [compound 36] (H-H[Aib]QGTFTSDYS[X1]YLD[Aib]RAAK([AEEA-AEEA-γGlu-C16 diacid])DFV[X1]WL[Met(O2)]DT-NH2; N-terminus assumed)
0.03	0.03	0.98	CC(C)C[C@H](NC(=O)[C@H](Cc1ccc(O)cc1)NC(=O)[C@H](CCCCN)NC(=O)[C@H](CO)NC(=O)[C@H](Cc1ccc(O)cc1)NC(=O)[C@H](CC(=O)O)NC(=O)[C@H](CO)NC(=O)[C@@H](NC(=O)[C@H](Cc1ccccc1)NC(=O)[C@@H](NC(=O)CNC(=O)[C@H](CCC(N)=O)NC(=O)C(C)(C)NC(=O)[C@@H](N)Cc1c[nH]cn1)[C@@H](C)O)[C@@H](C)O)C(=O)N[C@@H](CC(=O)O)C(=O)N[C@@H](C)C(=O)N[C@@H](CCCNC(=N)N)C(=O)N[C@@H](C)C(=O)N[C@@H](C)C(=O)N[C@@H](CCC(N)=O)C(=O)N[C@@H](CCCCNC(=O)COCCOCCNC(=O)COCCOCCNC(=O)CC[C@H](NC(=O)CCCCCCCCCCCCCCC(=O)O)C(=O)O)C(=O)N[C@@H](Cc1ccccc1)C(=O)N[C@H](C(=O)N[C@@H](CCC(N)=O)C(=O)N[C@@H](Cc1c[nH]c2ccccc12)C(=O)N[C@@H](CC(C)C)C(=O)N[C@@H](CCS(C)(=O)=O)C(=O)N[C@@H](CC(=O)O)C(=O)N[C@H](C(N)=O)[C@@H](C)O)C(C)C [compound 20] (H-H[Aib]QGTFTSDYSKYLDARAAQK([AEEA-AEEA-γGlu-C16 diacid])FVQWL[Met(O2)]DT-NH2)
